From ChEMBL document CHEMBL1201862, “PubChem BioAssay data set” (2004)
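Values below derive from 48-hour exposures of cells grown in 96-well plates, with endpoints linearly interpolated between the two concentrations bracketing the appropriate inhibition level. GI50 marks 50% less growth.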 Activity calls are given as the source filed them. Cut-off read from the data, not from the text of the source: active = GI50 up to about 1.1 µM and inactive = higher.

Key:
Experiment in all cases: growth of human tumour cells (NCI), 48 h
SK-MEL-28 = tested on: SK-MEL-28
OVCAR-5 = tested on: OVCAR-5
NCI/ADR-RES = tested on: NCI/ADR-RES
HOP-92 = tested on: HOP-92
UACC-62 = tested on: UACC-62
A498 = tested on: A498
HL-60 = tested on: HL-60
OVCAR-3 = tested on: OVCAR-3
SF-268 = tested on: SF-268
SNB-75 = tested on: SNB-75
OVCAR-4 = tested on: OVCAR-4
M14 = tested on: M14
SF-539 = tested on: SF-539
SW-620 = tested on: SW-620
NCI-H23 = tested on: NCI-H23
LOX IMVI = tested on: LOX IMVI
KM12 = tested on: KM12
Malme-3M = tested on: Malme-3M
HOP-62 = tested on: HOP-62

Row | SMILES | GI50 (SK-MEL-28) | GI50 (OVCAR-5) | GI50 (NCI/ADR-RES) | GI50 (HOP-92) | GI50 (UACC-62) | GI50 (A498) | GI50 (HL-60) | GI50 (OVCAR-3) | GI50 (SF-268) | GI50 (SNB-75) | GI50 (OVCAR-4) | GI50 (M14) | GI50 (SF-539) | GI50 (SW-620) | GI50 (NCI-H23) | GI50 (LOX IMVI) | GI50 (KM12) | GI50 (Malme-3M) | GI50 (HOP-62)
1 | Cc1ccsc1C(=S)Nc1ccc(Cl)c(C(=O)OC(C(C)C)C(C)C)c1 | 27.1 µM (inactive) | 57.9 µM (inactive) | 13.6 µM (inactive) | 16.3 µM (inactive) | 21 µM (inactive) | 27.2 µM (inactive) | 11.4 µM (inactive) | 14 µM (inactive) | 40.8 µM (inactive) | 24 µM (inactive) | 29.1 µM (inactive) | 17.9 µM (inactive) | 39.6 µM (inactive) | 18.9 µM (inactive) | 13.5 µM (inactive) | 18 µM (inactive) | 20 µM (inactive) | – | –
2 | Oc1cc(-c2cccc(OC(F)(F)F)c2)nc2ccc(N3CCCC3)cc12 | – | 0.000297 µM (active) | 0.00016 µM (active) | 0.0731 µM (active) | < 0.0001 µM (active) | 0.000322 µM (active) | < 0.0001 µM (active) | < 0.0001 µM (active) | 0.000306 µM (active) | < 0.0001 µM (active) | – | 0.00012 µM (active) | 0.000147 µM (active) | 0.00019 µM (active) | 0.0191 µM (active) | 0.000205 µM (active) | 0.000129 µM (active) | 0.000114 µM (active) | 0.000441 µM (active)
3 | O=C1/C(=C\c2cccc(Oc3ccccc3)c2)S(=O)(=O)C(c2ccccc2)N1c1cccc(Cl)c1 (centres undefined) | > 100 µM (inactive) | > 100 µM (inactive) | 35.4 µM (inactive) | 27.7 µM (inactive) | 57.7 µM (inactive) | > 100 µM (inactive) | – | 36.2 µM (inactive) | 39.2 µM (inactive) | > 100 µM (inactive) | 98.9 µM (inactive) | 40.8 µM (inactive) | 36.1 µM (inactive) | 25.1 µM (inactive) | 51.4 µM (inactive) | 19 µM (inactive) | 58.1 µM (inactive) | > 100 µM (inactive) | 98.2 µM (inactive)
4 | C[C@H](C1CC2(C)OC2(C)C(=O)O1)[C@H]1CC[C@H]2[C@@H]3[C@@H]4O[C@@H]4[C@@]4(O)CC=CC(=O)[C@]4(C)[C@H]3CC[C@]12C (some centres undefined) | > 50 µM (inactive) | > 50 µM (inactive) | > 50 µM (inactive) | > 50 µM (inactive) | > 50 µM (inactive) | > 50 µM (inactive) | > 50 µM (inactive) | > 50 µM (inactive) | > 50 µM (inactive) | 8.18 µM (inactive) | > 50 µM (inactive) | > 50 µM (inactive) | – | > 50 µM (inactive) | > 50 µM (inactive) | > 50 µM (inactive) | > 50 µM (inactive) | – | 37.8 µM (inactive)
5 | CC(C)(CC(O)C#N)/[N+]([O-])=[N+](\[O-])C(C)(C)CC(O)C#N (centres undefined) | 26.6 µM (inactive) | 23.5 µM (inactive) | 38.2 µM (inactive) | 18.2 µM (inactive) | 16 µM (inactive) | > 100 µM (inactive) | – | 22.5 µM (inactive) | 23.4 µM (inactive) | 23.7 µM (inactive) | 24.1 µM (inactive) | 16 µM (inactive) | – | 12 µM (inactive) | 25.4 µM (inactive) | 17.6 µM (inactive) | 30.7 µM (inactive) | 21.6 µM (inactive) | 19.4 µM (inactive)
6 | NNS(=O)(=O)c1ccc(/C=C2\NC(=O)NC2=O)cc1 | > 100 µM (inactive) | 58.1 µM (inactive) | > 100 µM (inactive) | > 100 µM (inactive) | > 100 µM (inactive) | > 100 µM (inactive) | > 100 µM (inactive) | > 100 µM (inactive) | > 100 µM (inactive) | > 100 µM (inactive) | > 100 µM (inactive) | > 100 µM (inactive) | – | > 100 µM (inactive) | > 100 µM (inactive) | > 100 µM (inactive) | > 100 µM (inactive) | > 100 µM (inactive) | > 100 µM (inactive)
7 | Cc1ccc(S(=O)(=O)Nn2c(O)c(C#N)c(-c3ccc(N(C)C)cc3)c(C#N)c2=O)cc1 | > 50 µM (inactive) | 21.8 µM (inactive) | > 50 µM (inactive) | > 50 µM (inactive) | 19.8 µM (inactive) | > 50 µM (inactive) | 28.9 µM (inactive) | – | > 50 µM (inactive) | > 50 µM (inactive) | > 50 µM (inactive) | – | > 50 µM (inactive) | > 50 µM (inactive) | – | > 50 µM (inactive) | > 50 µM (inactive) | > 50 µM (inactive) | > 50 µM (inactive)
8 | NC1=NC2(COC(c3ccccc3)(c3ccccc3)c3ccccc3)OC(COC(c3ccccc3)(c3ccccc3)c3ccccc3)C(O)C2O1 (centres undefined) | > 100 µM (inactive) | 81.7 µM (inactive) | 21.1 µM (inactive) | 15.2 µM (inactive) | 27.6 µM (inactive) | > 100 µM (inactive) | 8.59 µM (inactive) | > 100 µM (inactive) | – | < 0.01 µM (active) | – | > 100 µM (inactive) | 71.6 µM (inactive) | > 100 µM (inactive) | 23.1 µM (inactive) | > 100 µM (inactive) | 21.6 µM (inactive) | 18.4 µM (inactive) | > 100 µM (inactive)
9 | O=C1c2ccccc2C(=O)c2c1oc(=O)c1ccccc21 | 6.5 µM (inactive) | 6.03 µM (inactive) | 1.94 µM (inactive) | 5.16 µM (inactive) | 4 µM (inactive) | 9.82 µM (inactive) | 0.664 µM (active) | 0.698 µM (active) | 4.34 µM (inactive) | 5.24 µM (inactive) | 1.08 µM (active) | 6.05 µM (inactive) | 10.7 µM (inactive) | 2.08 µM (inactive) | 4.23 µM (inactive) | 3.65 µM (inactive) | 5.51 µM (inactive) | 2.63 µM (inactive) | 8.13 µM (inactive)
10 | c1csc(-c2cc(-c3ccsc3)cs2)c1 | > 100 µM (inactive) | 63.1 µM (inactive) | > 100 µM (inactive) | > 100 µM (inactive) | > 100 µM (inactive) | > 100 µM (inactive) | 74.1 µM (inactive) | 27.2 µM (inactive) | > 100 µM (inactive) | > 100 µM (inactive) | 40.6 µM (inactive) | > 100 µM (inactive) | 35.4 µM (inactive) | > 100 µM (inactive) | 14.9 µM (inactive) | > 100 µM (inactive) | > 100 µM (inactive) | – | 29.9 µM (inactive)
11 | CSc1nc(=O)c2nc(-c3cccs3)c(-c3cccs3)nc2n1C | 43.1 µM (inactive) | 75.3 µM (inactive) | 50.2 µM (inactive) | 28.8 µM (inactive) | 41.7 µM (inactive) | 32.3 µM (inactive) | 96.6 µM (inactive) | – | 37.2 µM (inactive) | 18.7 µM (inactive) | 30.7 µM (inactive) | > 100 µM (inactive) | – | > 100 µM (inactive) | 55.8 µM (inactive) | 57.5 µM (inactive) | > 100 µM (inactive) | 50.9 µM (inactive) | 20 µM (inactive)
12 | Cn1c2ccccc2n2c(N=O)c(-c3ccccc3)nc12 | > 100 µM (inactive) | 59.3 µM (inactive) | 18.4 µM (inactive) | 84.3 µM (inactive) | 56.5 µM (inactive) | > 100 µM (inactive) | 92.3 µM (inactive) | 30.1 µM (inactive) | > 100 µM (inactive) | 5.08 µM (inactive) | 62.4 µM (inactive) | 19.6 µM (inactive) | – | 72.8 µM (inactive) | 18.3 µM (inactive) | > 100 µM (inactive) | 15.2 µM (inactive) | 69.5 µM (inactive) | 5.52 µM (inactive)
13 | O=C(c1ccccc1Cl)n1oc2ccccc2c1=O | > 100 µM (inactive) | > 100 µM (inactive) | > 100 µM (inactive) | 25.2 µM (inactive) | > 100 µM (inactive) | > 100 µM (inactive) | 18 µM (inactive) | > 100 µM (inactive) | > 100 µM (inactive) | 51.1 µM (inactive) | > 100 µM (inactive) | > 100 µM (inactive) | 37.8 µM (inactive) | 57 µM (inactive) | – | 72.3 µM (inactive) | 84.1 µM (inactive) | > 100 µM (inactive) | > 100 µM (inactive)
14 | COC12C=CC(CC1)C(C)(C)C2OS(C)(=O)=O (centres undefined) | > 100 µM (inactive) | > 100 µM (inactive) | > 100 µM (inactive) | > 100 µM (inactive) | > 100 µM (inactive) | 97.1 µM (inactive) | > 100 µM (inactive) | > 100 µM (inactive) | > 100 µM (inactive) | 38.3 µM (inactive) | > 100 µM (inactive) | > 100 µM (inactive) | > 100 µM (inactive) | > 100 µM (inactive) | > 100 µM (inactive) | – | > 100 µM (inactive) | > 100 µM (inactive) | > 100 µM (inactive)
15 | CC1=CCC[C@H]2[C@](C)(CC3=CC(=O)C4SCCSC4C3=O)[C@@H](C)CC[C@]12C (some centres undefined) | 18 µM (inactive) | 18.6 µM (inactive) | 19.1 µM (inactive) | 31.4 µM (inactive) | 14.8 µM (inactive) | 16.1 µM (inactive) | – | 18.5 µM (inactive) | – | 27.7 µM (inactive) | 24.6 µM (inactive) | 14.3 µM (inactive) | 21 µM (inactive) | 17.1 µM (inactive) | 13.2 µM (inactive) | 11.2 µM (inactive) | 29 µM (inactive) | – | 15 µM (inactive)
16 | O=C1Nc2cc([N+](=O)[O-])ccc2N/C1=C/C(=O)c1ccc(Cl)cc1 | 10.6 µM (inactive) | 21.5 µM (inactive) | 7.71 µM (inactive) | 16 µM (inactive) | 14.9 µM (inactive) | 19.7 µM (inactive) | 19.8 µM (inactive) | 20.1 µM (inactive) | 11.7 µM (inactive) | 20.1 µM (inactive) | 20.4 µM (inactive) | 12.9 µM (inactive) | 10.7 µM (inactive) | 13.9 µM (inactive) | 14.2 µM (inactive) | 11.3 µM (inactive) | 14.4 µM (inactive) | 26.3 µM (inactive) | –
